Legend:
Test in all cases: Kinase inhibitor library screening, PrestoBlue cell viability, 1 or 10 μM, 72 h
[1] = system: A375-XP cells (Vemurafenib-resistant)
[2] = system: 501Mel-XP cells (Vemurafenib-resistant); conditions: 72 h
[3] = system: 501Mel-GP cells (Dabrafenib-resistant); conditions: 72 h
[4] = system: IGR37-XP cells (Vemurafenib-resistant)
[5] = system: IGR37-GP cells (Dabrafenib-resistant)
501Mel cells (parental) = conditions: 72 h
How it was run: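 Kinase inhibitors added at two fixed concentrations; 72 h exposure; PrestoBlue readout; % viability vs untreated; n ≥ 2 per line.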

IGR37 cells (parental) = system: IGR37 cells (parental)
A375 cells (parental) = system: A375 cells (parental)
[6] = system: A375-GP cells (Dabrafenib-resistant)
[7] = IGR37 Parental, 1μΜ, 72 h, in %
[8] = IGR37 Parental, 10μΜ, 72 h, in %

| SMILES | Cell viability in kinase inhibitor library screening, A375 XP, 1μΜ ([1]; A375 XP, 1μΜ, 72 h) | Cell viability in kinase inhibitor library screening, A375 XP, 10μΜ ([1]; A375 XP, 10μΜ, 72 h) | Cell viability in kinase inhibitor library screening, 501Mel XP, 1μΜ ([2]; 501Mel XP, 1μΜ, in %) | Cell viability in kinase inhibitor library screening, 501Mel XP, 10μΜ ([2]; 501Mel XP, 10μΜ, in %) | Cell viability in kinase inhibitor library screening, 501Mel GP, 1μΜ ([3]; 501Mel GP, 1μΜ, in %) | Cell viability in kinase inhibitor library screening, 501Mel GP, 10μΜ ([3]; 501Mel GP, 10μΜ, in %) | Cell viability in kinase inhibitor library screening, IGR37 XP, 10μΜ ([4]; IGR37 XP, 10μΜ, 72 h) | Cell viability in kinase inhibitor library screening, IGR37 XP, 1μΜ ([4]; IGR37 XP, 1μΜ, 72 h, in %) | Cell viability in kinase inhibitor library screening, IGR37 GP, 10μΜ ([5]; IGR37 GP, 10μΜ, 72 h) | Cell viability in kinase inhibitor library screening, IGR37 GP, 1μΜ ([5]; IGR37 GP, 1μΜ, 72 h, in %) | Cell viability in kinase inhibitor library screening, 501Mel Parental, 1μΜ (501Mel cells (parental); 501Mel Parental, 1μΜ, in %) | Cell viability in kinase inhibitor library screening, 501Mel Parental, 10μΜ (501Mel cells (parental); 501Mel Parental, 10μΜ, in %) | Cell viability in kinase inhibitor library screening, IGR37 Parental, 1μΜ (IGR37 cells (parental); [7]) | Cell viability in kinase inhibitor library screening, IGR37 Parental, 10μΜ (IGR37 cells (parental); [8]) | Cell viability in kinase inhibitor library screening, A375 Parental, 10μΜ (A375 cells (parental); A375 Parental, 10μΜ, 72 h) | Cell viability in kinase inhibitor library screening, A375 Parental, 1μΜ (A375 cells (parental); A375 Parental, 1μΜ, 72 h) | Cell viability in kinase inhibitor library screening, A375 GP, 1μΜ ([6]; A375 GP, 1μΜ, 72 h) | Cell viability in kinase inhibitor library screening, A375 GP, 10μΜ ([6]; A375 GP, 10μΜ, 72 h) | other results |
| --- | --- | --- | --- | --- | --- | --- | --- | --- | --- | --- | --- | --- | --- | --- | --- | --- | --- | --- | --- |
| c1cncc(CN2CCC(n3ncc4c(N5CCOCC5)nc(-c5ccc6[nH]ccc6c5)nc43)CC2)c1 [WAY-600] | 76.7 | 16.9 | 56.9 | 1.0 | 72.3 | 4.3 | 4.5% | 84.1 | 18.4% | 95.3 | 86.8 | 3.0 | 93.5 | 26.3 | 22.3 | 84.4 | 82.4 | 21.9 | – |
| COc1cc2ncnc(Nc3ccc(O)c(Br)c3)c2cc1OC [WHI-P154] | – | – | – | – | – | – | – | – | – | – | – | – | – | – | – | – | – | – | cell viability, A375 XP, 1μΜ ([1]; A375 XP, 1μΜ, 72 h, in %): 105.6; cell viability, A375 XP, 10μΜ ([1]; A375 XP, 10μΜ, 72 h, in %): 90.7; cell viability, 501Mel XP, 1μΜ ([2]; 501Mel XP, 1μΜ, in %): 89.8; cell viability, 501Mel XP, 10μΜ ([2]; 501Mel XP, 10μΜ, in %): 63.6; cell viability, 501Mel GP, 1μΜ ([3]; 501Mel GP, 1μΜ, in %): 99.5; cell viability, 501Mel GP, 10μΜ ([3]; 501Mel GP, 10μΜ, in %): 77.2; cell viability, IGR37 XP, 10μΜ ([4]; IGR37 XP, 10μΜ, 72 h): 36.2%; cell viability, IGR37 XP, 1μΜ ([4]; IGR37 XP, 1μΜ, 72 h, in %): 91.6; cell viability, IGR37 GP, 10μΜ ([5]; IGR37 GP, 10μΜ, 72 h): 72.3%; cell viability, IGR37 GP, 1μΜ ([5]; IGR37 GP, 1μΜ, 72 h, in %): 94.4; cell viability, 501Mel Parental, 1μΜ (501Mel cells (parental); 501Mel Parental, 1μΜ, in %): 97.4; cell viability, 501Mel Parental, 10μΜ (501Mel cells (parental); 501Mel Parental, 10μΜ, in %): 93.8; cell viability, IGR37 Parental, 1μΜ (IGR37 cells (parental); [7]): 97.1; cell viability, IGR37 Parental, 10μΜ (IGR37 cells (parental); [8]): 93.0; cell viability, A375 Parental, 1μΜ (A375 cells (parental); A375 Parental, 1μΜ, 72 h, in %): 98.9; cell viability, A375 Parental, 10μΜ (A375 cells (parental); A375 Parental, 10μΜ, 72 h, in %): 86.7; cell viability, A375 GP, 1μΜ ([6]; A375 GP, 1μΜ, 72 h, in %): 96.6; cell viability, A375 GP, 10μΜ ([6]; A375 GP, 10μΜ, 72 h, in %): 85.7 |
| C[C@H](NC(=O)/C(C#N)=C/c1cccc(Br)n1)c1ccccc1 [WP1066] | – | – | – | – | – | – | – | – | – | – | – | – | – | – | – | – | – | – | viability at 1 µM ([1]; Homo sapiens, A-375, 72 h, read-out: cell viability, A375 XP, 1μΜ): 103%; viability at 10 µM ([1]; Homo sapiens, A-375, 72 h, read-out: cell viability, A375 XP, 10μΜ): 6.7%; viability at 1 µM ([2]; Homo sapiens, read-out: cell viability, 501Mel XP, 1μΜ): 91.3%; viability at 10 µM ([2]; Homo sapiens, read-out: cell viability, 501Mel XP, 10μΜ): -0.0613%; viability at 1 µM ([3]; Homo sapiens, read-out: cell viability, 501Mel GP, 1μΜ): 102%; viability at 10 µM ([3]; Homo sapiens, read-out: cell viability, 501Mel GP, 10μΜ): 1.2%; viability at 1 µM ([4]; Homo sapiens, IGR-37, 72 h, read-out: cell viability, IGR37 XP, 1μΜ): 92.4%; viability at 10 µM ([4]; Homo sapiens, IGR-37, 72 h, read-out: cell viability, IGR37 XP, 10μΜ): 3.2%; viability at 1 µM ([5]; Homo sapiens, IGR-37, 72 h, read-out: cell viability, IGR37 GP, 1μΜ): 92.6%; viability at 10 µM ([5]; Homo sapiens, IGR-37, 72 h, read-out: cell viability, IGR37 GP, 10μΜ): 5.1%; viability at 1 µM (501Mel cells (parental); Homo sapiens, read-out: cell viability, 501Mel Parental, 1μΜ): 96.9%; viability at 10 µM (501Mel cells (parental); Homo sapiens, read-out: cell viability, 501Mel Parental, 10μΜ): 0.369%; viability at 1 µM (IGR37 cells (parental); Homo sapiens, IGR-37, 72 h, read-out: cell viability, IGR37 Parental, 1μΜ): 110%; viability at 10 µM (IGR37 cells (parental); Homo sapiens, IGR-37, 72 h, read-out: cell viability, IGR37 Parental, 10μΜ): 0.9%; viability at 1 µM (A375 cells (parental); Homo sapiens, A-375, 72 h, read-out: cell viability, A375 Parental, 1μΜ): 106%; viability at 10 µM (A375 cells (parental); Homo sapiens, A-375, 72 h, read-out: cell viability, A375 Parental, 10μΜ): 5.4%; viability at 1 µM ([6]; Homo sapiens, A-375, 72 h, read-out: cell viability, A375 GP, 1μΜ): 92.5%; viability at 10 µM ([6]; Homo sapiens, A-375, 72 h, read-out: cell viability, A375 GP, 10μΜ): 4.5% |
| COC(=O)Nc1ccc(-c2nc(N3CCOCC3)c3cnn(C4CCN(C(=O)OC)CC4)c3n2)cc1 [WYE-354] | 76.7 | 19.6 | 63.3 | 8.7 | 76.5 | 16.5 | 10.6% | 82.2 | 31.6% | 85.9 | 85.1 | 21.3 | 82.1 | 28.9 | 24.6 | 84.7 | 80.7 | 21.5 | – |
